The results in this text go back to patent publication US20250160275A1, “COMPOUNDS FOR MODIFYING MEIOTIC RECOMBINATION AND METHODS RELATING THERETO” (The University of North Carolina at Chapel Hill, priority 2022, published 2025).

Assay [1] has as its system flowering Arabidopsis thaliana plants. In words: visual fluorescent pollen transgene assay, crossover frequency in interval I5d (chromosome 5). It counts as in vivo. The note with it: 10% DMSO and 0.01% Silwet; for genetic map distance: p-value 0.000. The procedure: An aqueous solution of 3-aminobutanoic acid was applied to flowering Arabidopsis thaliana plants to enhance the frequency of meiotic recombination (crossovers). Silwet, a spraying adjuvant, was added to the 3-aminobutanoic acid solution at a volume/volume concentration of 0.01%. The solution was applied to the plants by foliar spraying until the plants were drenched. Several concentrations of 3-aminobutanoic acid were used including 0.1, 1, 7.5, 10, 12.5 and 15 mM. As a control, other plants (i.e., control plants) were treated with an aqueous 0.01% solution of Silwet by foliar spraying the solution on the plants until the plants were drenched.
(§1) Crossover frequencies were measured in pollen from treated and control plants using a visual fluorescent pollen transgene assay as described in Francis et al., Proc Natl Acad Sci USA. 2007; 104 (10): 3913-3918. In this assay pollen tetrads are scored as Parental Ditype (PD), Nonparental Ditype (NPD) or Tetratype (TT) and the frequency of those tetrad classes are used to calculate a genetic map distances in centiMorgans (cM) between reporter genes expressing fluorescent proteins. The genetic map distances between a pair of markers on chromosome 5 were compared between control plants and treated plants. The genetic interval between the two markers was designated as I5d. […] In Table 2, each experimental treatment is paired with data from control plants that were treated and scored together and designated with an experiment number in the first column.
An aqueous solution phenethyl isothiocyanate (IUPAC name: 2-isothiocyanatoethylbenzene) was applied to flowering Arabidopsis thaliana plants to enhance the frequency of meiotic recombination (crossovers). Phenethyl isothiocyanate in an aqueous solution containing 10% DMSO and 0.01% Silwet was applied by foliar spray until the plants were drenched. The phenethyl isothiocyanate was first dissolved in 100% DMSO and then diluted to its final concentration with 0.0.1% Silwet in water. Several concentrations of phenethyl isothiocyanate were used including 7.5, 10, and 12.5 mM. Control plants were treated with an aqueous solution of 10% DMSO and 0.01% Silwet by foliar spraying the solution on the control plants until the control plants were drenched.
as §1, with “4,” for “2,”
An aqueous solution BIX-01294 (IUPAC name: N-(1-benzylpiperidin-4-yl)-6,7-dimethoxy-2-(4-methyl-1,4-diazepan-1-yl) quinazolin-4-amine) was applied to flowering Arabidopsis thaliana plants to enhance the frequency of meiotic recombination (crossovers). BIX-01294 in an aqueous solution containing 10% DMSO and 0.01% Silwet was applied by foliar spray until the plants were drenched. The BIX-01294 was first dissolved in 100% DMSO and then diluted to its final concentration with 0.0.1% Silwet in water. Several concentrations of […] were used including 0.5, 1, 2.5 and 5 mM. Control plants were treated with an aqueous solution of 10% DMSO and 0.01% Silwet by foliar spraying the solution on the control plants until the control plants were drenched. […]

Assay [2] deals with rice (Kitaake x Nipponbare F1 plants). Description: meiotic recombination in rice F1 plants, recombinant reads in sequenced pollen DNA. The class given is in vivo, Oryza sativa subspecies japonica. Particulars: 7.5 mM whole-plant spray at panicle stage, 10% DMSO and 0.01% Silwet; pollen harvested after 5-7 days. From the text:
Meiotic recombination was stimulated in rice by external application of phenethyl isothiocyanate (IUPAC name: 2-isothiocyanatoethylbenzene). First, two parental rice lines, “Oryza sativa subspecies japonica variety Kitaake” (“Kitaake” hereafter) and “Oryza sativa subspecies japonica variety Nipponbare” (“Nipponbare” hereafter) were manually crossed to produce F1 seeds. F1 seeds were germinated and grown to produce F1 plants. PCR was used to genotype the F1 plants and confirm their heterozygosity. When F1 plants produced panicles (inflorescences) they were treated by spraying the whole plant, until saturation, with 7.5 mM phenethyl isothiocyanate in an aqueous solution containing 10% DMSO and 0.01% Silwet. The phenethyl isothiocyanate was first dissolved in 100% DMSO and then diluted to its final concentration with 0.0.1% Silwet in water. Control plants were mock-treated with 10% DMSO and 0.01% Silwet. […] Reads that spanned at least two parental SNPs were selected and binned into those that contained SNPs of only the Kitaake type (non-recombinant), only the Nipponbare type (non-recombinant) or both Kitaake and Nipponbare type (recombinant). The frequency of recombinant reads from treated and untreated plants were compared to detect an increase in meiotic recombination resulting from treatment with phenethyl isothiocyanate.

With `S=C=NCCc1ccccc1` [phenethyl isothiocyanate, 2-isothiocyanatoethylbenzene], the “NPD (Nonparental Ditype pollen tetrads)” value in assay [1] (7.5 mM foliar spray, Exp.(2)) is given as 2; in assay [1] (10 mM foliar spray, Exp.(1)), 0; in assay [1] (12.5 mM foliar spray, Exp.(2)), 0. Moreover, the “PD (Parental Ditype pollen tetrads)” value in assay [1] (7.5 mM foliar spray, Exp.(2)) came out at 978; in assay [1] (10 mM foliar spray, Exp.(1)) it was 1840; in assay [1] (12.5 mM foliar spray, Exp.(2)), 868. The “TT (Tetratype pollen tetrads)” value was found to be 211 in assay [1] (7.5 mM foliar spray, Exp.(2)); 370 in assay [1] (10 mM foliar spray, Exp.(1)); 200 in assay [1] (12.5 mM foliar spray, Exp.(2)). The genetic map distance worked out at 9.36 cM in assay [1] (7.5 mM foliar spray, Exp.(2), DMSO control 5.90 cM); 8.37 cM in assay [1] (10 mM foliar spray, Exp.(1), DMSO control 5.77 cM); 9.36 cM in assay [1] (12.5 mM foliar spray, Exp.(2), DMSO control 5.90 cM). The “meiotic recombination in treated plants compared to controls” value in assay [1] (all concentrations (7.5, 10, 12.5 mM)) was “increase meiotic recombination”. Further, the “meiotic recombination in rice” value in assay [2] was “stimulated”.
